{"source": "paper PMC8199124", "about": "“Design, Synthesis and In-Vitro Biological Evaluation of Antofine and Tylophorine Prodrugs as Hypoxia-Targeted Anticancer Agents” (Molecules, 2021)", "key": {"[1]": {"tested_on": "RKO", "assay": "Cytotoxicity (MTT) under normoxia, RKO", "format": "cell-based", "details": "Homo sapiens, read-out: IC50 RKO", "protocol": "(§1) The cytotoxicity of the compounds 5a–c and their parent alkaloids was evaluated by the 3-[4,5-dimethylthiazole-2-yl]-2,5-diphenyltetrazolium bromide (MTT) assay against 5 cancerous and 2 non-cancerous cell lines (Table 4).\n(§2) The eight cell lines HEK293 (Human embryonic kidney 293), CHO-K1 (Chinese hamster ovary K1), MCF-7 cells (Human breast adenocarcinoma), HCT116 (human colorectal carcinoma), RKO (Human rectal carcinoma), SW480 (human colorectal carcinoma), H460 (Human lung cancer), and MRC5 (Normal human foetal lung fibroblast), were obtained from the ATCC. The cell lines were routinely grown in alpha minimum essential medium (α-MEM) containing 5% foetal calf serum (FCS). The appropriate number of cells (HCT116 = 400 cells/well, H460 cells = 600 cells/well) were seeded into 96-well plates under normoxic or hypoxic conditions. Cells were plated in 100 µL α-MEM containing 10% FCS, 10mM D-Glucose and 0.2mM 2′-deoxycytidine. After incubation for 2 h, the compounds were added at the appropriate concentration and incubated for further 4 h. The cells were then washed three times with drug-free α-MEM (containing 5% FCS and pen/strep). The plates were then incubated for 5 days under normoxic conditions. The cells were stained with sulphorhodamine B to measure total cells. The IC50 was determined by interpolation as the compound concentration reducing staining to 50% of controls on the same plate."}, "[2]": {"tested_on": "HEK293", "assay": "Cytotoxicity (MTT) under normoxia, HEK293", "format": "cell-based", "details": "Homo sapiens, HEK293, read-out: IC50 HEK293", "protocol": "as §1, §2"}, "[3]": {"tested_on": "MCF7", "assay": "Cytotoxicity (MTT) under normoxia, MCF7", "format": "cell-based", "details": "Homo sapiens, MCF7, read-out: IC50 MCF7", "protocol": "as §1, §2"}, "[4]": {"assay": "Human plasma stability test", "format": "in vitro ADME", "details": "37 °C, up to 24 h, read-out: t1/2 (Human Plasma) (converted)", "protocol": "(§3) Incubations were carried out in 6 aliquots of 70 μL each in duplicates. […] The reactions were stopped by adding 350 μL of acetonitrile with subsequent plasma proteins sedimentation by centrifuging at 5500 rpm for 5 min. Supernatants were analyzed by LC-MS using Shimadzu VP HPLC system including vacuum degasser, gradient pumps, reverse phase column, column oven and autosampler. The HPLC system was coupled with tandem mass spectrometer API 3000 (PE Sciex, Foster City, CA, USA). Both the positive and negative ion modes of the TurboIonSpray ion source were used. The acquisition and analysis of the data were performed using Analyst 1.5.2 software (PE Sciex, API 3000 mass spectrometer, Foster City, CA, USA). The percentage of the test compounds remaining after incubation in plasma and their half-lives (T1/2) were calculated."}, "[5]": {"assay": "Mouse plasma stability test", "format": "in vitro ADME", "details": "37 °C, up to 24 h, read-out: t1/2 (Mouse Plasma) (converted)", "protocol": "as §3"}, "[6]": {"tested_on": "HCT116", "assay": "Cytotoxicity under normoxia and hypoxia (anaerobic chamber, sulphorhodamine B), HCT116", "format": "cell-based, human", "details": "for IC50: Homo sapiens, HCT-116, 4 h exposure, 5 days growth", "protocol": "(§4) We also checked if the designed prodrugs were able to liberate the active alkaloids in hypoxic tumors by testing them under hypoxic conditions using an anaerobic chamber. The three prodrugs 5a–c and their parent alkaloids as well as the reference compounds PR-104A, the parent alcohol form of the phosphate pre-prodrug PR-104, and evofosfamide were tested using the HCT116 and H460 cell lines under both normoxic and hypoxic conditions (Table 5). The prodrugs were much less cytotoxic than the parent drugs, in agreement with our observations using the other cell lines described above (Figure 6).\n(§5) The extent to which a prodrug is deactivated relative to its parent drug under normoxic conditions is defined as the Deactivation Ratio (DR). The DR can be simply calculated as DR = IC50 (prodrug)/IC50 (parent drug).\n(§6) The efficacy of prodrug activation under hypoxic conditions can be expressed by the Hypoxia Cytotoxicity Ratio (HCR), which can be calculated for a given prodrug as: HCR = normoxic IC50/hypoxic IC50.\nas §2"}, "[7]": {"assay": "BBB-Parallel Artificial Membrane Permeability Assay (BBB-PAMPA)", "format": "in vitro ADME", "details": "mean ± SE", "protocol": "The physicochemical properties of the new compounds were evaluated (Table 1). […] Consequently, these derivatives lost their BBB penetrability, as predicted by the BBB-Parallel Artificial Membrane Permeability Assay (BBB-PAMPA), whereas their parent alkaloids had free passage through the BBB.\n(§7) Water solubility, logD, and PAMPA-BBB were evaluated using the protocols we previously described."}, "[8]": {"tested_on": "HCT116", "assay": "Cytotoxicity (MTT) under normoxia, HCT116", "format": "cell-based", "details": "Homo sapiens, HCT-116, read-out: IC50 HCT116", "protocol": "as §1, §2"}, "[9]": {"tested_on": "MRC5", "assay": "Cytotoxicity (MTT) under normoxia, MRC5", "format": "cell-based", "details": "Homo sapiens, MRC5, read-out: IC50 MRC5", "protocol": "as §1, §2"}, "[10]": {"tested_on": "SW480", "assay": "Cytotoxicity (MTT) under normoxia, SW480", "format": "cell-based", "details": "Homo sapiens, SW480, read-out: IC50 SW480", "protocol": "as §1, §2"}, "[11]": {"assay": "LogD determination", "format": "physicochemical", "details": "mean ± SE", "protocol": "as §7"}, "[12]": {"assay": "Plasma protein binding (PPB)", "format": "in vitro ADME", "details": "mean ± SE, read-out: PPB (% of Bound Compound) (converted)", "protocol": "The physicochemical properties of the new compounds were evaluated (Table 1)."}, "[13]": {"tested_on": "H460", "assay": "Cytotoxicity under normoxia and hypoxia (anaerobic chamber, sulphorhodamine B), H460", "format": "cell-based, human", "details": "for IC50: Homo sapiens, NCI-H460, 4 h exposure, 5 days growth", "protocol": "as §4, §5, §6, §2"}, "[14]": {"tested_on": "CHO-K1", "assay": "Cytotoxicity (MTT) under normoxia, CHO-K1", "format": "cell-based, Chinese hamster", "details": "Cricetulus griseus, CHO-K1, read-out: IC50 CHO-K1", "protocol": "as §1, §2"}, "[15]": {"assay": "in vitro", "details": "male, Balb/c, mouse, pH 7.4", "protocol": "Mouse hepatic microsomes were isolated from pooled, perfused livers of Balb/c male mice according to the standard protocol. […] Microsomal incubations were carried out in 96-well plates in 5 aliquots of 40 μL each. […] Control incubations were performed by replacing the NADPH-cofactor system with PBS. The additional control incubations in PBS (with 3.3 mM MgCl2) without added microsomes were carried out in this study. […] The incubations were performed in duplicates. Five time points over 40 min had been analyzed. The reactions were stopped by adding 12 volumes of 90% acetonitrile-water to incubation aliquots, followed by protein sedimentation by centrifuging at 5500 rpm for 3 min. The supernatants were analyzed using LC-MS as mentioned above."}, "[16]": {"assay": "Solubility in PBS (pH 7.4)", "format": "physicochemical", "details": "aqueous buffer, mean ± SE", "protocol": "as §7"}}, "note": "Where two headings read alike, the source gives them in different places.", "data": [{"smiles": "COc1cc2c3c(c4cc(OC)c(OC)cc4c2cc1OC)C[N+]1(Cc2c([N+](=O)[O-])ncn2C)CCC[C@H]1C3.[Br-]", "note": "(stereo partly drawn) [Compound 5b, (13aS)-2,3,6,7-tetramethoxy-10-((1-methyl-4-nitro-1H-imidazol-5-yl)methyl)-10,11,12,13,13a,14-hexahydro-9H-dibenzo[f,h]pyrrolo[1,2-b]isoquinolin-10-ium bromide]", "values": [{"measurement": "IC50", "setting": "[1]", "value": "4.06 ± 0.181", "unit": "µM"}, {"measurement": "melting point", "value": "165 to 167", "unit": "°C"}, {"measurement": "IC50", "setting": "[2]", "value": "0.95 ± 0.174", "unit": "µM"}, {"measurement": "IC50", "setting": "[3]", "value": "1.5 ± 0.128", "unit": "µM"}, {"measurement": "half-life at 1 μM", "setting": "[4]", "value": "63.3 ± 0.1", "unit": "h"}, {"measurement": "half-life at 1 μM", "setting": "[5]", "value": "73 ± 1.7", "unit": "h"}, {"measurement": "HCR (Hypoxia Cytotoxicity Ratio)", "setting": "[6]", "value": 11.3}, {"measurement": "DR (Deactivation Ratio)", "setting": "[6]; HCT116, normoxia, DR = IC50 (prodrug)/IC50 (parent drug)", "value": 689}, {"measurement": "IC50", "setting": "[6]; HCT116, hypoxia, read-out: IC50 (Hypoxia)", "value": "1.46 ± 0.411", "unit": "µM"}, {"measurement": "IC50", "setting": "[6]; HCT116, normoxia, read-out: IC50 (Normoxia)", "value": "4.49 ± 0.698", "unit": "µM"}, {"measurement": "Permeability (Papp)", "setting": "[7]", "value": "<−7 Log [10^−6 cm/s]"}, {"measurement": "IC50", "setting": "[8]", "value": "3.3 ± 1.56", "unit": "µM"}, {"measurement": "IC50", "setting": "[9]", "value": "3.31 ± 0.163", "unit": "µM"}, {"measurement": "IC50", "setting": "[10]", "value": "7.25 ± 0.49", "unit": "µM"}, {"measurement": "logD", "setting": "[11]", "value": "0.38 ± 0.04"}, {"measurement": "fraction unbound", "setting": "[12]", "value": 0.411}, {"measurement": "HCR (Hypoxia Cytotoxicity Ratio)", "setting": "[13]", "value": 24}, {"measurement": "DR (Deactivation Ratio)", "setting": "[13]; H460, normoxia, DR = IC50 (prodrug)/IC50 (parent drug)", "value": 719}, {"measurement": "IC50", "setting": "[13]; H460, hypoxia, read-out: IC50 (Hypoxia)", "value": "3.22 ± 1.07", "unit": "µM"}, {"measurement": "IC50", "setting": "[13]; H460, normoxia, read-out: IC50 (Normoxia)", "value": 77.6, "unit": "µM"}, {"measurement": "IC50", "setting": "[14]", "value": "3.49 ± 0.843", "unit": "µM"}, {"measurement": "Kel (elimination rate constant)", "setting": "[15]; 2 μM", "value": "0.002 ± 0", "unit": "min⁻¹"}, {"measurement": "metabolized into the parent drug", "setting": "[15]; microsomes, 2 μM", "value": "less than 1%"}, {"measurement": "half-life at 2 μM", "setting": "[15]; microsomes", "value": "6.733 ± 0.0533", "unit": "h"}, {"measurement": "solubility", "setting": "[16]", "value": "162 ± 3", "unit": "µM"}]}]}
